Experimental data: US5707679A, “Metal propionates for use as animal feed supplements” (priority 1995, dated 1998)
Like-named read-outs stand apart in the source and are kept apart here.

Tests used:
[1] = cited from earlier work; for biological availability vs inorganic salts (in words): polyvalent metal ions from metal-amino acid complexes; for absorption of metal cations in the gastrointestinal tract (in words): in vivo
[2] = chickens; cited from earlier work
[3] = in vivo; cited from earlier work
[4] = bovine, in vivo; cited from earlier work
[5] = Performance of finishing cattle (Study 1: weight, gain, feed intake, gain/feed); format: in vivo, Angus crossbred steers; design: Average daily gain: unit not given here; conditions: finishing steers; for Final weight / Initial weight: 25 ppm supplemental zinc; for Final weight: 140-day study; for Initial weight: baseline
Text: Fifty-six Angus crossbred steers were used in this study. Steers were purchased from either a feeder calf sale […] a preconditioned sale. Steers were blocked by sale type and weight, and then randomly assigned to a feed regimen. […] All regimens provided 25 ppm of supplemental zinc. Steers were housed in pens containing seven steers each.
Supplemental protein was supplied from a combination of soybean meal and urea. Steer weights were obtained on two consecutive days at the beginning and the end of the 140-day study. Interim weights were taken at 28-day intervals. Feed intake was measured daily. Blood and rumen fluid samples were obtained from 10 steers per treatment approximately two hours post feeding on day 42 of the study. Samples were analyzed for plasma and rumen fluid soluble zinc concentrations. Data were analyzed statistically by least square analysis of variance.

[6] = Performance of growing cattle (Study 2: weight, gain, feed intake, gain/feed); format: in vivo, Angus steers; conditions: for Average daily gain / Feed intake / Gain/feed / Final weight / Initial weight: growing steers; for Final weight / Initial weight: 25 ppm supplemental zinc; for Initial weight: baseline
Text: Thirty-six Angus steers with an average body weight of 268 kg were stratified by weight and randomly assigned to feed regimens. […] Zinc was supplemented in all treatments to provide 25 ppm of supplemental zinc.
Steers were housed in pens of 12 steers and individually fed using electronic gates. Each pen contained an equal number of steers from each dietary regimen. Steers were fed a basal corn silage-based growing diet supplemented with protein, minerals and vitamins. Diets were offered ad libitum.
Body weights were obtained on two consecutive days at the initiation and termination of the 112-day study. Interim weights were taken at 28-day intervals. Blood and rumen fluid samples were obtained on day 42 of the study for determination of plasma and rumen fluid soluble zinc concentrations. Data were statistically analyzed by least square analysis of variance.

[7] = Comparative zinc bioavailability trial in day-old broilers (growth, feed conversion, bone ash, tibia ash zinc, plasma zinc); conditions: for Relative Biological Availability: Feed conversion (corr.): 3-21 days; for Relative Biological Availability: Body weight gain / Relative Biological Availability: Bone ash / Relative Biological Availability: Ending body weight: 21 days
Protocol: Each zinc treatment was replicated eight times and each pen contained ten male birds.
Basal feeds and zinc compound were mixed in a horizontal feed mixer providing the desired ingredient composition as shown in Table 2. The broilers were fed the rations for 21 days. Feed weights were taken during the trial. Body weights were measured at the beginning and at the end of the trial. On day 21, zinc levels in the blood and tibia ash were determined. The assay procedures for total tibia zinc content or concentration to assess zinc utilization are similar to those used by Wedekind et al., J. Anim. Sci., 70:178-187 (1992). The data were analyzed according to the SAS statistical package.
Chick growth parameters and zinc levels in the blood and tibia ash were used as criteria to determine the biological availability of zinc. […] The biological availability of zinc sulfate was arbitrarily set at 100%.

[8] = 0 to 28 days, propionate vs. sulfate P < 0.05, vs. methionine P < 0.10
[9] = 55 to 112 days (so in the source)
[10] = 0 to 28 days, propionate vs. methionine P < 0.05, vs. sulfate P < 0.10 (as footnoted)
[11] = 29 to 56 days, propionate vs. methionine P < 0.05
[12] = 29 to 56 days, propionate vs. sulfate P < 0.05, vs. methionine P < 0.10
[13] = 57 to 84 days, propionate vs. sulfate P < 0.10
[14] = Total (0 to 112 days), propionate vs. sulfate P < 0.05, vs. methionine P < 0.10
[15] = zinc sulfate arbitrarily set at 100%
[16] = day 21, zinc sulfate arbitrarily set at 100%

Molecule: NCCCC[C@H](N)C(=O)O.[Zn] [zinc-lysine]
- biological availability vs inorganic salts (in words) [1]: more biologically available to the animal than are the same ions provided from inorganic salts

Molecule: O=C([O-])CC(O)(CC(=O)[O-])C(=O)[O-].O=C([O-])CC(O)(CC(=O)[O-])C(=O)[O-].[Zn+2].[Zn+2].[Zn+2] [zinc citrate]
- absorption of metal cations in the gastrointestinal tract (in words) [1]: variable results, enhancing absorption in one study and having no effect in others

Molecule: CC(=O)[O-].CC(=O)[O-].[Zn+2] [zinc acetate, Zinc acetate]
- toxicity (in words) [2]: toxic to chickens

Molecule: zinc picolinate
- absorption of zinc (in words) [3]: enhance the absorption of zinc in humans and rats
- absorption of zinc (in words) [4]: not in cattle
- absorption of metal cations in the gastrointestinal tract (in words) [1]: variable results, enhancing absorption in one study and having no effect in others

Molecule: CSCC[C@H](N)C(=O)O.O=S(=O)([O-])O.O=S(=O)([O-])O.[Zn+2] [Zinc methionine, Zinc methionine bisulfate]
- Average daily gain ([5]; 0 to 28 days): 1.32
- Feed intake ([5]; 0 to 28 days): 6.35 kg/day
- Gain/feed [5, 8]: 0.208
- Final weight [5]: 487.6 kg
- Initial weight [5]: 304.7 kg
- Average daily gain ([5]; 29 to 56 days): 1.45
- Feed intake ([5]; 29 to 56 days): 7.76 kg/day
- Gain/feed ([5]; 29 to 56 days): 0.186
- Gain/feed [5, 9]: 0.115
- Average daily gain ([5]; 57 to 84 days): 1.57
- Feed intake ([5]; 57 to 84 days): 6.43 kg/day
- Gain/feed ([5]; 57 to 84 days): 0.244
- Average daily gain ([5]; 85 to 112 days): 0.97
- Feed intake ([5]; 85 to 112 days): 8.51 kg/day
- Average daily gain ([5]; 113 to 140 days): 1.22
- Feed intake ([5]; 113 to 140 days): 6.59 kg/day
- Gain/feed ([5]; 113 to 140 days): 0.184
- Average daily gain ([5]; Total (0 to 140 days)): 1.31
- Feed intake ([5]; Total (0 to 140 days)): 7.13 kg/day
- Gain/feed ([5]; Total (0 to 140 days)): 0.183
- gains, second 28-day period (in words) ([6]; 29 to 56 days, methionine vs propionate (P<0.05)): gains were greater (P<0.05) in steers fed zinc methionine compared with those fed zinc propionate
- Gains for the entire study (in words) ([6]; 112-day study): tended to be higher for steers fed zinc methionine
- Average daily gain ([6]; 0 to 28 days): 1.33 kg
- Feed intake ([6]; 0 to 28 days): 8.11 kg/day
- Gain/feed [6, 10]: 0.164
- Final weight ([6]; 112-day study): 399.6 kg
- Initial weight [6]: 267.7 kg
- Feed intake ([6]; 29 to 56 days): 9.03 kg/day
- Average daily gain [6, 11]: 1.18 kg
- Gain/feed [6, 12]: 0.132
- Average daily gain ([6]; 57 to 84 days): 0.87 kg
- Gain/feed ([6]; 57 to 84 days): 0.104
- Feed intake [6, 13]: 8.62 kg/day
- Average daily gain ([6]; 85 to 112 days): 1.34 kg
- Feed intake ([6]; 85 to 112 days): 8.56 kg/day
- Gain/feed ([6]; 85 to 112 days): 0.158
- Average daily gain ([6]; Total (0 to 112 days)): 1.18 kg
- Feed intake ([6]; Total (0 to 112 days)): 8.58 kg/day
- Gain/feed [6, 14]: 0.139
- feed consumption (in words) ([6]; total study period, vs zinc sulfate (P<0.10)): consumed more (P<0.10) feed over the total study period than steers fed zinc sulfate
- Relative Biological Availability: Feed conversion (corr.) [7, 15]: 90.38%
- Relative Biological Availability: Body weight gain [7, 15]: 131.52%
- Relative Biological Availability: Bone ash [7, 15]: 113.95%
- Relative Biological Availability: Ending body weight [7, 15]: 132.46%
- levels of zinc in the blood and tibia ash (in words) ([7]; day 21): comparable levels of zinc in the blood and tibia ash
- Relative Biological Availability: Plasma Zinc [7, 16]: 124.00%
- Relative Biological Availability: Tibia ash zinc [7, 16]: 123.99%
- biological availability vs inorganic salts (in words) [1]: more biologically available to the animal than are the same ions provided from inorganic salts

Molecule: O=S(=O)([O-])[O-].[Zn+2] [Zinc sulfate]
- Average daily gain ([5]; 0 to 28 days): 1.26
- Feed intake ([5]; 0 to 28 days): 6.28 kg/day
- Gain/feed [5, 8]: 0.201
- Final weight [5]: 489.6 kg
- Initial weight [5]: 303.0 kg
- Average daily gain ([5]; 29 to 56 days): 1.46
- Feed intake ([5]; 29 to 56 days): 7.51 kg/day
- Gain/feed ([5]; 29 to 56 days): 0.195
- Gain/feed [5, 9]: 0.142
- Average daily gain ([5]; 57 to 84 days): 1.52
- Feed intake ([5]; 57 to 84 days): 6.21 kg/day
- Gain/feed ([5]; 57 to 84 days): 0.244
- Average daily gain ([5]; 85 to 112 days): 1.19
- Feed intake ([5]; 85 to 112 days): 8.33 kg/day
- Average daily gain ([5]; 113 to 140 days): 1.24
- Feed intake ([5]; 113 to 140 days): 6.60 kg/day
- Gain/feed ([5]; 113 to 140 days): 0.189
- Average daily gain ([5]; Total (0 to 140 days)): 1.33
- Feed intake ([5]; Total (0 to 140 days)): 6.99 kg/day
- Gain/feed ([5]; Total (0 to 140 days)): 0.191
- Average daily gain ([6]; 0 to 28 days): 1.34 kg
- Feed intake ([6]; 0 to 28 days): 7.67 kg/day
- Gain/feed [6, 10]: 0.178
- Final weight ([6]; 112-day study): 391.8 kg
- Initial weight [6]: 265.5 kg
- Feed intake ([6]; 29 to 56 days): 8.13 kg/day
- Average daily gain [6, 11]: 1.10 kg
- Gain/feed [6, 12]: 0.137
- Average daily gain ([6]; 57 to 84 days): 0.72 kg
- Gain/feed ([6]; 57 to 84 days): 0.095
- Feed intake [6, 13]: 7.62 kg/day
- Average daily gain ([6]; 85 to 112 days): 1.36 kg
- Feed intake ([6]; 85 to 112 days): 7.86 kg/day
- Gain/feed ([6]; 85 to 112 days): 0.174
- Average daily gain ([6]; Total (0 to 112 days)): 1.13 kg
- Feed intake ([6]; Total (0 to 112 days)): 7.82 kg/day
- Gain/feed [6, 14]: 0.145
- Relative Biological Availability: Feed conversion (corr.) [7, 15]: 100.00%
- Relative Biological Availability: Body weight gain [7, 15]: 100.00%
- Relative Biological Availability: Bone ash [7, 15]: 100.00%
- Relative Biological Availability: Ending body weight [7, 15]: 100.00%
- Relative Biological Availability: Plasma Zinc ([7]; chicken, in vivo, 30240 min): 100.00%
- Relative Biological Availability: Tibia ash zinc ([7]; chicken, in vivo, 30240 min): 100.00%
